# Numbers after ± are expanded uncertainties.
# Experiments:
# [1] = 303.15 K, 100 kPa, Liquid; for viscosity: Capillary tube (Ostwald / Ubbelohde) method; for speed of sound: Frequency=2 MHz, Linear variable-path acoustic interferometer; for mass density: Pycnometric method
# [2] = xn = mol fraction of the nth substance listed; conditions: 303.15 K, 100 kPa, Liquid; for viscosity: Capillary tube (Ostwald / Ubbelohde) method; for speed of sound: Frequency=2 MHz, Linear variable-path acoustic interferometer; for mass density: Pycnometric method
smiles,measurement,setting,value
CCCCC(CC)COP(=O)(O)OCC(CC)CCCC (configuration not stated) [bis(2-ethylhexyl) hydrogen phosphate],viscosity,[1],19.29 ± 0.83 mPa·s
same,speed of sound,[1],1293 ± 2.8 m/s
same,mass density,[1],961.3 ± 4.1 kg/m3
CCCCC(CC)COP(=O)(O)OCC(CC)CCCC (configuration not stated) [bis(2-ethylhexyl) hydrogen phosphate] + Cc1ccccc1,viscosity,[2]; x1 = 0.0896,0.722 ± 0.03 mPa·s
same,viscosity,[2]; x1 = 0.1624,0.907 ± 0.037 mPa·s
same,viscosity,[2]; x1 = 0.2077,1.086 ± 0.045 mPa·s
same,viscosity,[2]; x1 = 0.2898,1.576 ± 0.065 mPa·s
same,viscosity,[2]; x1 = 0.3279,1.914 ± 0.079 mPa·s
same,viscosity,[2]; x1 = 0.4205,3.098 ± 0.13 mPa·s
same,viscosity,[2]; x1 = 0.5082,4.679 ± 0.19 mPa·s
same,viscosity,[2]; x1 = 0.5903,6.432 ± 0.27 mPa·s
same,viscosity,[2]; x1 = 0.6814,8.931 ± 0.38 mPa·s
same,viscosity,[2]; x1 = 0.7388,10.84 ± 0.46 mPa·s
same,viscosity,[2]; x1 = 0.8105,13.17 ± 0.56 mPa·s
same,viscosity,[2]; x1 = 0.8876,15.68 ± 0.67 mPa·s
same,viscosity,[2]; x1 = 0.9427,17.43 ± 0.75 mPa·s
same,viscosity,[2]; x1 = 1,19.29 ± 0.83 mPa·s
same,speed of sound,[2]; x1 = 0.0896,1283.7 ± 2.2 m/s
same,speed of sound,[2]; x1 = 0.1624,1284.5 ± 2.2 m/s
same,speed of sound,[2]; x1 = 0.2077,1285.1 ± 2.2 m/s
same,speed of sound,[2]; x1 = 0.2898,1286 ± 2.3 m/s
same,speed of sound,[2]; x1 = 0.3279,1286.6 ± 2.3 m/s
same,speed of sound,[2]; x1 = 0.4205,1287.4 ± 2.4 m/s
same,speed of sound,[2]; x1 = 0.5082,1288.2 ± 2.4 m/s
same,speed of sound,[2]; x1 = 0.5903,1289 ± 2.5 m/s
same,speed of sound,[2]; x1 = 0.6814,1289.9 ± 2.5 m/s
same,speed of sound,[2]; x1 = 0.7388,1290.5 ± 2.6 m/s
same,speed of sound,[2]; x1 = 0.8105,1291.2 ± 2.6 m/s
same,speed of sound,[2]; x1 = 0.8876,1291.9 ± 2.7 m/s
same,speed of sound,[2]; x1 = 0.9427,1292.5 ± 2.7 m/s
same,speed of sound,[2]; x1 = 1,1293 ± 2.8 m/s
same,mass density,[2]; x1 = 0.0896,884.9 ± 4 kg/m3
same,mass density,[2]; x1 = 0.1624,902.1 ± 4 kg/m3
same,mass density,[2]; x1 = 0.2077,910.5 ± 4 kg/m3
same,mass density,[2]; x1 = 0.2898,923.1 ± 4 kg/m3
same,mass density,[2]; x1 = 0.3279,928.8 ± 4 kg/m3
same,mass density,[2]; x1 = 0.4205,937.6 ± 4 kg/m3
same,mass density,[2]; x1 = 0.5082,944.5 ± 4.1 kg/m3
same,mass density,[2]; x1 = 0.5903,949.3 ± 4.1 kg/m3
same,mass density,[2]; x1 = 0.6814,953.3 ± 4.1 kg/m3
same,mass density,[2]; x1 = 0.7388,955.2 ± 4.1 kg/m3
same,mass density,[2]; x1 = 0.8105,957.1 ± 4.1 kg/m3
same,mass density,[2]; x1 = 0.8876,958.8 ± 4.1 kg/m3
same,mass density,[2]; x1 = 0.9427,960.1 ± 4.1 kg/m3
same,mass density,[2]; x1 = 1,961.3 ± 4.1 kg/m3
CCCCC(CC)COP(=O)(O)OCC(CC)CCCC (configuration not stated) [bis(2-ethylhexyl) hydrogen phosphate] + Clc1ccccc1,viscosity,[2]; x1 = 0.0568,0.917 ± 0.038 mPa·s
same,viscosity,[2]; x1 = 0.1474,1.535 ± 0.063 mPa·s
same,viscosity,[2]; x1 = 0.2143,1.859 ± 0.076 mPa·s
same,viscosity,[2]; x1 = 0.3498,2.804 ± 0.12 mPa·s
same,viscosity,[2]; x1 = 0.4357,3.777 ± 0.16 mPa·s
same,viscosity,[2]; x1 = 0.4788,4.502 ± 0.19 mPa·s
same,viscosity,[2]; x1 = 0.5322,5.526 ± 0.23 mPa·s
same,viscosity,[2]; x1 = 0.6285,7.879 ± 0.33 mPa·s
same,viscosity,[2]; x1 = 0.7146,10.49 ± 0.44 mPa·s
same,viscosity,[2]; x1 = 0.7704,12.21 ± 0.52 mPa·s
same,viscosity,[2]; x1 = 0.8433,14.56 ± 0.62 mPa·s
same,viscosity,[2]; x1 = 0.8789,15.86 ± 0.68 mPa·s
same,viscosity,[2]; x1 = 0.9501,17.84 ± 0.77 mPa·s
same,viscosity,[2]; x1 = 1,19.29 ± 0.83 mPa·s
same,speed of sound,[2]; x1 = 0.0568,1253.2 ± 2.2 m/s
same,speed of sound,[2]; x1 = 0.1474,1255.5 ± 2.2 m/s
same,speed of sound,[2]; x1 = 0.2143,1257.7 ± 2.2 m/s
same,speed of sound,[2]; x1 = 0.3498,1262.8 ± 2.3 m/s
same,speed of sound,[2]; x1 = 0.4357,1266.4 ± 2.4 m/s
same,speed of sound,[2]; x1 = 0.4788,1268.4 ± 2.4 m/s
same,speed of sound,[2]; x1 = 0.5322,1270.8 ± 2.4 m/s
same,speed of sound,[2]; x1 = 0.6285,1275.4 ± 2.5 m/s
same,speed of sound,[2]; x1 = 0.7146,1279.5 ± 2.6 m/s
same,speed of sound,[2]; x1 = 0.7704,1282.2 ± 2.6 m/s
same,speed of sound,[2]; x1 = 0.8433,1285.7 ± 2.6 m/s
same,speed of sound,[2]; x1 = 0.8789,1287.3 ± 2.7 m/s
same,speed of sound,[2]; x1 = 0.9501,1290.8 ± 2.7 m/s
same,speed of sound,[2]; x1 = 1,1293 ± 2.8 m/s
same,mass density,[2]; x1 = 0.0568,1075.2 ± 4 kg/m3
same,mass density,[2]; x1 = 0.1474,1051.9 ± 4 kg/m3
same,mass density,[2]; x1 = 0.2143,1038.4 ± 4.1 kg/m3
same,mass density,[2]; x1 = 0.3498,1017.9 ± 4.1 kg/m3
same,mass density,[2]; x1 = 0.4357,1007.6 ± 4.1 kg/m3
same,mass density,[2]; x1 = 0.4788,1002.9 ± 4.1 kg/m3
same,mass density,[2]; x1 = 0.5322,997.1 ± 4.1 kg/m3
same,mass density,[2]; x1 = 0.6285,987.8 ± 4.1 kg/m3
same,mass density,[2]; x1 = 0.7146,980.4 ± 4.1 kg/m3
same,mass density,[2]; x1 = 0.7704,975.8 ± 4.1 kg/m3
same,mass density,[2]; x1 = 0.8433,970.4 ± 4.1 kg/m3
same,mass density,[2]; x1 = 0.8789,968 ± 4.1 kg/m3
same,mass density,[2]; x1 = 0.9501,963.8 ± 4.1 kg/m3
same,mass density,[2]; x1 = 1,961.3 ± 4.1 kg/m3
CCCCC(CC)COP(=O)(O)OCC(CC)CCCC (configuration not stated) [bis(2-ethylhexyl) hydrogen phosphate] + O=[N+]([O-])c1ccccc1,viscosity,[2]; x1 = 0.0912,2.409 ± 0.099 mPa·s
same,viscosity,[2]; x1 = 0.1743,2.925 ± 0.12 mPa·s
same,viscosity,[2]; x1 = 0.2624,3.319 ± 0.14 mPa·s
same,viscosity,[2]; x1 = 0.3698,4.274 ± 0.18 mPa·s
same,viscosity,[2]; x1 = 0.4211,4.689 ± 0.19 mPa·s
same,viscosity,[2]; x1 = 0.4779,5.585 ± 0.23 mPa·s
same,viscosity,[2]; x1 = 0.5326,6.687 ± 0.28 mPa·s
same,viscosity,[2]; x1 = 0.6102,8.662 ± 0.36 mPa·s
same,viscosity,[2]; x1 = 0.6933,10.95 ± 0.46 mPa·s
same,viscosity,[2]; x1 = 0.7299,11.91 ± 0.5 mPa·s
same,viscosity,[2]; x1 = 0.7867,13.51 ± 0.57 mPa·s
same,viscosity,[2]; x1 = 0.8598,15.51 ± 0.66 mPa·s
same,viscosity,[2]; x1 = 0.9387,17.75 ± 0.76 mPa·s
same,viscosity,[2]; x1 = 1,19.29 ± 0.83 mPa·s
same,speed of sound,[2]; x1 = 0.0912,1429.5 ± 2.2 m/s
same,speed of sound,[2]; x1 = 0.1743,1415.6 ± 2.3 m/s
same,speed of sound,[2]; x1 = 0.2624,1401.5 ± 2.3 m/s
same,speed of sound,[2]; x1 = 0.3698,1385.2 ± 2.4 m/s
same,speed of sound,[2]; x1 = 0.4211,1377.5 ± 2.4 m/s
same,speed of sound,[2]; x1 = 0.4779,1369.1 ± 2.4 m/s
same,speed of sound,[2]; x1 = 0.5326,1361.1 ± 2.5 m/s
same,speed of sound,[2]; x1 = 0.6102,1349.8 ± 2.5 m/s
same,speed of sound,[2]; x1 = 0.6933,1337.6 ± 2.6 m/s
same,speed of sound,[2]; x1 = 0.7299,1332.2 ± 2.6 m/s
same,speed of sound,[2]; x1 = 0.7867,1323.9 ± 2.6 m/s
same,speed of sound,[2]; x1 = 0.8598,1313.2 ± 2.7 m/s
same,speed of sound,[2]; x1 = 0.9387,1301.9 ± 2.7 m/s
same,speed of sound,[2]; x1 = 1,1293 ± 2.8 m/s
same,mass density,[2]; x1 = 0.0912,1139 ± 4.1 kg/m3
same,mass density,[2]; x1 = 0.1743,1104.1 ± 4.1 kg/m3
same,mass density,[2]; x1 = 0.2624,1075.4 ± 4.1 kg/m3
same,mass density,[2]; x1 = 0.3698,1048.6 ± 4.1 kg/m3
same,mass density,[2]; x1 = 0.4211,1038.1 ± 4.1 kg/m3
same,mass density,[2]; x1 = 0.4779,1027.1 ± 4.1 kg/m3
same,mass density,[2]; x1 = 0.5326,1017.4 ± 4.1 kg/m3
same,mass density,[2]; x1 = 0.6102,1004.6 ± 4.1 kg/m3
same,mass density,[2]; x1 = 0.6933,992.8 ± 4.1 kg/m3
same,mass density,[2]; x1 = 0.7299,988.1 ± 4.1 kg/m3
same,mass density,[2]; x1 = 0.7867,981.4 ± 4.1 kg/m3
same,mass density,[2]; x1 = 0.8598,973.6 ± 4.1 kg/m3
same,mass density,[2]; x1 = 0.9387,966.2 ± 4.1 kg/m3
same,mass density,[2]; x1 = 1,961.3 ± 4.1 kg/m3
Clc1ccccc1 [chlorobenzene],viscosity,[1],0.724 ± 0.03 mPa·s
same,speed of sound,[1],1251.8 ± 2.1 m/s
same,mass density,[1],1095.2 ± 4 kg/m3
Clc1ccccc1 [chlorobenzene] + CCCCC(CC)COP(=O)(O)OCC(CC)CCCC,viscosity,[2]; x2 = 0,0.724 ± 0.03 mPa·s
same,speed of sound,[2]; x2 = 0,1251.8 ± 2.1 m/s
same,mass density,[2]; x2 = 0,1095.2 ± 4 kg/m3
O=[N+]([O-])c1ccccc1 [nitrobenzene],viscosity,[1],1.611 ± 0.066 mPa·s
same,speed of sound,[1],1445.6 ± 2.2 m/s
same,mass density,[1],1193.6 ± 4.1 kg/m3
O=[N+]([O-])c1ccccc1 [nitrobenzene] + CCCCC(CC)COP(=O)(O)OCC(CC)CCCC,viscosity,[2]; x2 = 0,1.611 ± 0.066 mPa·s
same,speed of sound,[2]; x2 = 0,1445.6 ± 2.2 m/s
same,mass density,[2]; x2 = 0,1193.6 ± 4.1 kg/m3
Cc1ccccc1 [toluene],viscosity,[1],0.528 ± 0.022 mPa·s
same,speed of sound,[1],1282.6 ± 2.1 m/s
same,mass density,[1],856.2 ± 4 kg/m3
Cc1ccccc1 [toluene] + CCCCC(CC)COP(=O)(O)OCC(CC)CCCC,viscosity,[2]; x2 = 0,0.528 ± 0.022 mPa·s
same,speed of sound,[2]; x2 = 0,1282.6 ± 2.1 m/s
same,mass density,[2]; x2 = 0,856.2 ± 4 kg/m3
